Laboratory results as given in patent publication US8227210B2, “Positive control proteins for glucose transporter proteins and processes for the generation of such positive control proteins” (East Tennessee State University Research Foundation, priority 2008, dated 2012).
Where “and” joins values, the source holds several entries; their conditions need not be identical. Equal values may be shown once. Entries after “also recorded” stand apart in the source; their conditions may differ.

How the values were obtained:
[1] = tested on: SEQ ID NO. 12 (GLUT4) translocation in L6 myoblasts; test: Insulin-stimulated translocation of GLUT4 to PM fraction in L6 myoblasts and its inhibition by PI3-K inhibitor; format: cell-based, rat; conditions: L6 cells, 10 ng/mL insulin
Procedure: (§1) Fractionation of L6 muscle cells: L6 cells were obtained from ATCC and cultured in D.MEM medium with 10% fetal bovine serum with subculturing every three to five days. For the studies described below, cells were grown to near confluence in 100 mm dishes. Cells were harvested in 1 mL homogenization Buffer A containing 5 μL protease inhibitors using a rubber policeman. The remainder of the technique is the same as muscle microsamples. The yield of protein averaged 199±14 μg for PM and 419±22 μg for LDM. Immunoblot technique: Immunoblotting was performed essentially as previously described (11). In general, 10-20 μg protein from muscle homogenate or fractions was separated on a 10% polyacrylamide gel using the Laemmli system (12), transferred to a nitrocellulose membrane, subjected to blocking with 2.5% non-fat dry milk in phosphate-buffered saline, incubated with a validated dilution of one of the anti-GLUT antibodies above including 1.25% milk, and developed with the enhanced chemiluminescence reagent and X-ray film. Image analysis was performed on scanned film digital files using Quantity One version 4.5.2 software from Bio-Rad (Hercules, Calif.). The specificity of the antibodies employed for GLUT1 SEQ ID NO. […] After harvesting and fractionating the cells, samples from the fractions were subjected to immunoblotting and digital images were quantified by image analysis software. […]

[2] = Euglycemic insulin clamp: plasma insulin concentration and glucose infusion rate
Procedure: Euglycemic insulin clamp studies: Insulin infusion studies were performed essentially as previously described (8; 9) except no isotope or somatostatin were used in this study. Mter an overnight fast, subjects were maintained in quiet recumbency for two hours to minimize the effects of muscular activity on protein subcellular localization. After a baseline muscle biopsy, a constant insulin infusion was performed at 40 mU/m2/min for three hours. A second muscle biopsy was performed on the contralateral side in the last 10 minutes of the insulin infusion period.

SEQ ID NO. 16 (GLUT12) = test: Euglycemic insulin clamp: GLUT12 in plasma membrane-enriched (PM) fraction of vastus lateralis biopsies, quantitative immunoblot; format: in vivo, human
Procedure: (§2) Muscle biopsies: Percutaneous needle biopsies of vastus lateralis were performed using a 5 mm Bergstrom-Stille needle under suction after an overnight fast and two hours of quiet recumbency as previously described (6). A 50-100 mg specimen was quickly blotted and the entire sample was frozen in liquid nitrogen for later analysis.
Fractionation of muscle microsamples: We have made minor modifications of our previously described techniques (10). Briefly, 50 mg muscle is removed from the −80° C. freezer and slowly thawed on ice. The muscle is homogenized in 1.0 ml Buffer A (250 mM sucrose, 20 mM HEPES, pH 7.4) with 5 μL protease cocktail (Cocktail Kit Pierce #78410) added. Initial homogenization is 30 seconds with a Pellet Pestle Motor (Kontes). The homogenate is passed through a BD Falcon 100 μm Cell Strainer and after adding 100 μL Buffer B (3M KCl, 250 roM sodium pyrophosphate), is spun at 227,000×g for 30 minutes. The pellet is resuspended in 1.0 mL of Buffer A with protease cocktail using the Pellet Pestle Motor again for 30 seconds. This sample is then spun at 12,000×g for 20 minutes. The pellet is resuspended in 200 μl, Boston Bioproducts Triton Lysis Buffer with Protease Inhibitor (BP-117) using the Pellet Pestle Motor. This sample is designated PM, the plasma membrane-enriched fraction. The supernate is removed and spun at 227,000×g for 30 minutes. The resulting pellet is also resuspended in 200 μL Boston. Bioproducts Triton Lysis Buffer, and is designated LDM, the low density microsomes fraction. PM protein content averaged 139±7 μg and LDM contained 265±8 μg protein. In studies performed on human control muscle sample fractions, the PM fraction contained 80% of the immunological signal for the plasma membrane marker Na/K+ ATPase α-I (05-369 from Millipore). LDM contained 67% of the golgi marker mannosidase II (AB3712 from Chemicon).
(§3) Immunoblot technique: Immunoblotting was performed essentially as previously described (11). […] Image analysis was performed on scanned film digital files using Quantity One version 4.5.2 software from Bio-Rad (Hercules, Calif.). […]

SEQ ID NO. 12 (GLUT4) [3] = conditions: cited from earlier work
SEQ ID NO. 10 (GLUT1) = test: Euglycemic insulin clamp: GLUT1 in plasma membrane-enriched (PM) fraction of vastus lateralis biopsies, immunoblot; format: in vivo, human
Procedure: as §2
(§4) Fractionation of muscle microsamples: We have made minor modifications of our previously described techniques (10). Briefly, 50 mg muscle is removed from the −80° C. freezer and slowly thawed on ice. The muscle is homogenized in 1.0 ml Buffer A (250 mM sucrose, 20 mM HEPES, pH 7.4) with 5 μL protease cocktail (Cocktail Kit Pierce #78410) added. Initial homogenization is 30 seconds with a Pellet Pestle Motor (Kontes). The homogenate is passed through a BD Falcon 100 μm Cell Strainer and after adding 100 μL Buffer B (3M KCl, 250 roM sodium pyrophosphate), is spun at 227,000×g for 30 minutes. The pellet is resuspended in 1.0 mL of Buffer A with protease cocktail using the Pellet Pestle Motor again for 30 seconds. This sample is then spun at 12,000×g for 20 minutes. […]
as §3

[4] = tested on: SEQ ID NO. 16 (GLUT12) translocation in L6 myoblasts; test: Insulin-stimulated translocation of GLUT12 to PM fraction in L6 myoblasts and its inhibition by PI3-K inhibitor; format: cell-based, rat; conditions: L6 cells, 10 ng/mL insulin
Procedure: as §1

SEQ ID NO. 12 (GLUT4) [5] = test: Euglycemic insulin clamp: GLUT4 in plasma membrane-enriched (PM) fraction of vastus lateralis biopsies, quantitative immunoblot; format: in vivo, human
Procedure: as §2, §4, §3

Substance: insulin: insulin given as constant euglycemic infusion at 40 mU/m2/min, or 10 ng/mL on L6 cells
- Translocation of GLUT4 to the PM fraction by insulin [1]: caused translocation; also recorded: moved from the fraction to the PM fraction
- Plasma insulin concentration ([2]; infusion of insulin at 40 mU/m2/min, baseline 28±7 pmol/L): 343 ± 21 pmol/L
- Mean glucose infusion rate to maintain blood glucose of 85 mg/dL ([2]; steady state period of the insulin infusion): 8.87 mg/kg·min
- GLUT12 distribution in the plasma membrane-enriched (PM) fractions (SEQ ID NO. 16 (GLUT12); end of 3 h insulin infusion at 40 mU/m2/min, six normal volunteers, baseline 17%): 38%
- Change of GLUT12 content of the PM fraction in response to insulin infusion (SEQ ID NO. 16 (GLUT12); insulin infusion vs baseline): more than doubled in four of the six subjects
- Minimum increase of GLUT12 content of the PM fraction (SEQ ID NO. 16 (GLUT12); insulin infusion vs baseline, minimum response among six subjects): ≥ 60%
- Increase in GLUT4 in the muscle plasma membrane fractions (Zierath) (SEQ ID NO. 12 (GLUT4) [3]; after euglycemic insulin infusion, same infusion rate, literature ref 26): 60%
- Increase in sarcolemma-associated GLUT4 by confocal quantitative immunohistochemistry (Kelley) (SEQ ID NO. 12 (GLUT4) [3]; control subjects, literature ref 24): 85%
- Increase in GLUT4 in muscle plasma membrane-enriched fractions (Garvey) (SEQ ID NO. 12 (GLUT4) [3]; ten-fold higher insulin infusion, control subjects, literature ref 25): 2.8 fold
- Change of GLUT1 distribution/signal in LDM and PM fractions after insulin (SEQ ID NO. 10 (GLUT1); insulin infusion vs baseline): did not change; also recorded: no change
- GLUT1 content in the PM fractions (SEQ ID NO. 10 (GLUT1); post-insulin infusion, subjects 1-5, baseline 78±7%): 79±9% and 79%
- Translocation of GLUT12 to the PM fraction by insulin [4]: translocated; also recorded: caused translocation; also recorded: moved from the fraction to the PM fraction
- GLUT4 distribution in the plasma membrane-enriched (PM) fractions (SEQ ID NO. 12 (GLUT4) [5]; end of 3 h insulin infusion at 40 mU/m2/min, six normal volunteers, baseline 13%): 42%
- Change of GLUT4 content of the PM fraction in response to insulin infusion (SEQ ID NO. 12 (GLUT4) [5]; insulin infusion vs baseline, each subject): more than doubled; also recorded: at least doubled
